Results reported in patent US20050257287A1, “Vectors capable of imparting herbicide resistance and viral cross protection and methods” (priority 2002, published 2005).

System: weeds including nutgrass (Cyperus rotundus L.), little hogweed (Portulaca oleracea L.), pigweed (Amaranthus sp.) and annual graminaceous weeds
Assay: Field experiment: weed eradication by Basta
Assay type: in vivo
Conditions: 0.5% Basta with or without AMS 1.5 g/L
Method: Two varieties of melon (Galia-type cv. 5080 and Ananas-type cv. Ofir), two varieties of watermelon (cvs Crimson and Seedless 313), squash (cv. Maayan) and cucumber (cv. Shimshon) were seeded in Speedling type trays. Seedlings were inoculated by bombardment of cotyledons with the AGII-Bar or AGII construct. Plants were planted in a 500 m^2 field, in a sandy loam soil, at 0.5 m intervals in six 2 m wide rows and irrigated by a single line of 0.5 m interval dripline. Each row included 15 plants of each of the five-cucurbit varieties, 13 plants inoculated with AGII-Bar and two inoculated with AGII as a control. Irrigation was initiated a week previously to boost weeds and facilitate planting. […] The active ingredient was calculated per hectare (g a.i./ha) on basis of ground speed measured separately for each treatment. […] Squash fruit were picked and counted daily. […] Each group was counted and then weighed collectively.
In order to verify the applicability of AGII-Bar to commercial cucurbit cultivation in a field prone to weed infestation an experiment including more than 450 plants was conducted. […] Ten day post inoculation, the infection rate was determined by ELISA of 50 random plant samples and found to be 100%. […]

## ammonium sulphate [AMS]
  Effect of adjuvant on herbicidal activity: did not exert a detectable difference
